Data reported in patent US10561639B2, “Composition comprising a TNFR agonist and at least one thioredoxin inhibitor for use in the treatment of carcinoma” (UNIVERSITY OF HUDDERSFIELD, priority 2013, dated 2020).

B1: mCD40L: membrane CD40 ligand delivered by co-culture with growth-arrested third-party cells expressing mCD40L (protein, UniProt P29965 1-261, looked up)
chain: MIETYNQTSPRSAATGLPISMKIFMYLLTVFLITQMIGSALFAVYLHRRLDKIEDERNLHEDFVFMKTIQRCNTGERSLSLLNCEEIKSQFEGFVKDIMLNKEETKKENSFEMQKGDQNPQIAAHVISEASSKTTSVLQWAEKGYYTMSNNLVTLENGKQLTVKRQGLYYIYAQVTFCSNREASSQAPFIASLCLKSPGRFERILLRAANTHSSAKPCGQQSIHLGGVFELQPGASVFVNVTDPSQVSHGTGFTSFGLLKL
modifications: full-length expressed on growth-arrested feeder cells

Assays:
[1] = test system: Bladder carcinoma cells (EJ); assay: Cytotox-Glo apoptosis assay in bladder carcinoma cells (EJ); format: cell-based; details: 48 hours, G28-5 10 ug/mL, PX-12 at minimally cytotoxic concentration, FIG. 1
Description: Referring firstly to FIG. 1 where comparative results are shown from Bladder carcinoma cells (EJ) treated with soluble CD40 agonist (agonistic antibody G28-5), the indicated concentration of Trx inhibitor (PX-12), or their combination and results compared to untreated (Control) cells. Apoptosis was assessed 48 hours later using the Cytotox-Glo assay (Promega). Raw data (relative luminescence units) are shown and results are representative of three independent experiments in which six technical replicates were carried out for each condition.
Apoptosis was assessed 48 hours later using the Cytotox-Glo assay (Promega). Results are expressed as relative luciferase in comparison to negative controls and are representative of four independent experiments in which six technical replicates were carried out for each condition.
Carcinoma cell lines EJ and HCT116 (obtained from the European Collection of Cell Cultures, ECACC) were maintained in a 50:50 (v/v) mixture of Dulbecco's Modified Eagle Medium (DMEM, Sigma) and Roswell Park Memorial Institute 1640 (RPMI, Sigma) (DR), supplemented with 5% Fetal calf serum (FCS, Biosera) and 1% (2 mM) L-Glutamine (Sigma). Cells were incubated at 37° C. in a humidified atmosphere of 5% CO2 in air. […] Cells were removed with a 10 mL suspension of DR 5% and counted in single cell suspension using an “improved Neubauer” haemocytometer (VWR). […]

[2] = test system: colorectal carcinoma cells (HCT116); assay: Sensolyte caspase activity assay in colorectal carcinoma cells (HCT116); format: cell-based; details: 24 hours, PX-12 3 μM, G28-5 10 ug/mL, FIG. 3
Description: Apoptosis was assessed on the basis of caspase activity detection after 24 hours of treatment using the Sensolyte (Anaspec) assay (Cambridge Biosciences). Results are expressed as relative fluorescence (relative caspase activity) in comparison to negative controls and are representative of two independent experiments in which six technical replicates were carried out for each condition.
Carcinoma cell lines EJ and HCT116 (obtained from the European Collection of Cell Cultures, ECACC) were maintained in a 50:50 (v/v) mixture of Dulbecco's Modified Eagle Medium (DMEM, Sigma) and Roswell Park Memorial Institute 1640 (RPMI, Sigma) (DR), supplemented with 5% Fetal calf serum (FCS, Biosera) and 1% (2 mM) L-Glutamine (Sigma). […] Cells were removed with a 10 mL suspension of DR 5% and counted in single cell suspension using an “improved Neubauer” haemocytometer (VWR).
EJ and HT116 cells were seeded into white 96-well plates (at […] and 6×10^3 cells per well, respectively) and left incubated overnight. […] Cells were then incubated for 48 hours before assessing cell death using the CytoTox-Glo™ cell death detection assay (according to the manufacturer's instructions) on a FLUOstar™ OPTIMA (BMG Labtech) plate reader. Alternatively, after 24 or 48 hours caspase activity was determined using the SensoLyte® Homogenous AFC Caspase-3/7 Assay Kit (Anaspec). […]

[3] = test system: colorectal carcinoma SW480 cells; assay: Cytotox-Glo % cell death in colorectal carcinoma SW480 cells; format: cell-based; details: 12 hours, BS-1 5 microg/mL, PX-12 4 microM, FIG. 8
Description: Apoptosis was assessed 12 hours later using the Cytotox-Glo assay (Promega). Results were obtained as relative luciferase activity in comparison to negative controls and subsequently percentage (%) cell death values were deduced for each condition according to the manufacturer's instructions. Results are representative of two independent experiments in which six technical replicates were carried out for each condition.

[4] = PX-12 alone; cited from earlier work
[5] = test system: ASK-1 protein knock-out EJ cell derivatives ('S18'); assay: Cytotox-Glo apoptosis assay in ASK-1 knock-out EJ derivatives treated with mCD40L; format: cell-based; details: S18 cells versus EJ cells, 48 hours, FIG. 5
Description: (§1) The cells were treated with mCD40L and apoptosis was assessed 48 hours later using the Cytotox-Glo assay (Promega) and by measuring levels of phospho-JNK and Bax using immune-blotting. The images from the blotting can be seen in FIGS. 6a and 6b.

[6] = test system: phospho-JNK and Bax in ASK-1 knock-out EJ cell derivatives ('S18'); assay: Immunoblotting of phospho-JNK and Bax after mCD40L; format: cell-based; details: cells with ASK-1 knockdown (S18), FIGS. 6a and 6b
Description: as §1

Molecule | cytotoxicity / apoptosis (Cytotox-Glo, relative luminescence units) [1] | cytotoxicity / apoptosis by caspase activation (relative caspase activity) [2] | pro-apoptotic activity / cytotoxicity (% Cell Death) [3] | doses required for conventional PX-12 treatment to obtain cytotoxicity [4] | apoptosis after mCD40L in ASK-1 knockdown cells (Cytotox Glo) [5] | p-JNK and Bax induction [6]
CCC(C)SSc1ncc[nH]1 (stereo not drawn) [PX-12, 2-[(1-Methylpropyl)dithio]-1H-imidazole] | little | some cytotoxicity | some but not extensive cytotoxicity | 10 to 25 µg/mL |  | 
B1 |  |  |  |  | inhibition of apoptosis | lack of p-JNK and Bax induction
